The results in this text go back to ChEMBL document CHEMBL3259803, “2012 Division of medicinal chemistry award address. Trekking the cannabinoid road: a personal perspective” (J Med Chem, 2014).

The target in the experiment is Cannabinoid receptor 2 (Homo sapiens) (UniProt P34972). Description: Inhibition of [3H]CP-55940 binding to N-terminal FLAG-tagged/C-terminal 6His-tagged recombinant human CB2 receptor overexpressed in baculovirus infected insect Sf21 cells assessed as reduction of receptor Bmax at 10 nM after 1 hr relative to control.
Sequence of Cannabinoid receptor 2 (Homo sapiens) (P34972 whole entry): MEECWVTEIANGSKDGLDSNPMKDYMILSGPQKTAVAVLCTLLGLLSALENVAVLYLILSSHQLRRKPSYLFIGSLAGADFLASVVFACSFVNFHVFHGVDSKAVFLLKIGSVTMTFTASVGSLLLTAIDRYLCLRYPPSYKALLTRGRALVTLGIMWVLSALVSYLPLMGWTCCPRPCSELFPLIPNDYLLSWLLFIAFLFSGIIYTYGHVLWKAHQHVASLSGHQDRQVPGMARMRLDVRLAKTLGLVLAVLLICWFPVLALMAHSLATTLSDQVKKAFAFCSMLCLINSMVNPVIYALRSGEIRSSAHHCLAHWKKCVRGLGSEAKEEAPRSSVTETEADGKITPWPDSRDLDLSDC

SMILES strings stand for the structures.

In the case of `CC(C)(CCCCCCN=C=S)c1ccc2c(c1)OC(C)(C)[C@@H]1CC[C@@H](CO)C[C@@H]21`, the inhibition (commonly the relative decrease from the control value, in per cent) is 75%.
